In one test the test system is Rhizopus arrhizus. In words: E test. In kind it is cell-based.
Test [1] has as its system Cryptococcus bacillisporus (AFLP5/VGIII). Description: Treatment of a grey parrot with cryptococcosis. Particulars: in drinking water, 600 mg per litre, after 6 months. In kind it is in vivo, grey parrot (Psittacus erithacus). The text has this: Phenotypic and molecular analysis of the isolated yeast allowed the identification of Cryptococcus bacillisporus (AFLP5/VGIII) as the cause of the infection.

Test [2] has as its system sessile cells of yeast mono and dual-species biofilms. Description: MIC of catheter yeast isolates, mono and dual-species biofilms. It is filed as cell-based. Particulars: range.
The subject of test [3] is Candida sp. and other yeast isolates, planktonic. In words: MIC of catheter yeast isolates, planktonic form. In kind it is cell-based. The conditions noted are these: read-out: Minimum Inhibitory Concentrations (MIC).
In another test the test system is C. glabrata. In words: Antifungal susceptibility testing of blood culture isolate. The conditions noted are these: Nakaseomyces glabratus. It is filed as cell-based, Candida glabrata. The source says:
Case presentation: A patient with a surgically corrected Tetralogy of Fallot and pulmonary valve replacement (BioPulmonic Conduit) was admitted to the cardiology ward for treatment of their progessively worsening symptomatic heart failure. Their medical history reports multiple other co-morbidities including supravalvular (prothetic pulmonary valve) stenosis, supraventricular tachycardia, atrial fibrillation, diabetes mellitus type I, and intellectual disability. No history of IV drug use or recent immunosuppressive therapy was reported. On admission they received diuretic treatment and a percutaneous intervention was planned to treat the supravalvular pulmonary stenosis. However, ten days after admission they developed fever (40.5 °C) with elevated C-reactive protein (237.9 mg/L) and leukocytosis (14.0 × 10^9/L). […] Anidulafungine IV was started and follow-up bloodcultures were taken routinely. The patient improved clinically and their inflammation markers normalized. However, the bloodcultures were persistently positive, albeit with periods of negative cultures, despite adequate treatment with high-dose anidulafungin 200 mg IV daily. International guidelines recommend surgery to treat Candida prostethic valve infective endocarditis and/or long-term suppressive therapy with antifungal drugs. […]

A further test concerns Trichophyton spp. Description: Agar-based screening method. It is filed as cell-based. Particulars: 0.5 McF, 5 days, 30 °C. As to the method:
Inter-experimental variation was evaluated by testing 10 isolates on three different days. Single-centre validation: After determining the optimal conditions for the agar screening method, 112 molecularly identified Trichophyton spp. clinical isolates were tested.

Test [4] has as its system Aspergillus isolates (total). In words: Triazole resistance agar screening, four-well plate. The conditions noted are these: RPMI agar, 1 µg/mL, 50 isolates.
Method: (§1) All the isolates were identified phenotypically. […] Fungal spores were suspended in normal saline (0.85%) and adjusted to 0.5 McFarland and 50 μL was plated in each well. […] Plates were incubated at 35–37 °C for 72 h in ambient air. The presence or absence of growth was observed visually at 24 h, 48 h, and 72 h.
Test [5] deals with A. fumigatus isolates from BAL. In words: Sensititre YeastOne Y010, read according to CLSI (2020). In kind it is cell-based, Aspergillus fumigatus. How it is done: Materials & Methods: Retrospective evaluation of antifungal susceptibility for A. fumigatus isolates from bronchoalveolar lavage (BAL) fluid in pts with invasive pulmonary aspergillosis was performed. All isolates were obtained from hematological pts admitted to National Research Center for Hematology (Moscow) between 2016 and 2020. All A. fumigatus species were identified by morphology, matrix-assisted laser desorption ionization time of flight mass spectrometry. The azole-resistant strains were identified by ITS, β-tubulin, calmodulin and actine gene sequencing. […] The MIC of antifungal agents were read according to the CLSI (2020). Cyp51A was sequenced to establish the most common resistance mechanisms embedded in azole-resistant A. fumigatus.

The test system of a further test is Asp. flavus. Description: Triazole resistance agar screening, four-well plate. The conditions noted are these: RPMI agar, 1 µg/mL, 29 isolates.
Another test deals with Asp. niger. The description is as above. Particulars: RPMI agar, 1 µg/mL, 14 isolates.
For another test, the system named is Scedosporium apiospermum. In words: EUCAST reference method MIC. It is filed as cell-based. As to the method:
Case presentation: A patient presented with a bursitis of their left elbow. Six months before they were treated with lymphodepleting chemotherapy directly followed by B-cell associated CD19-specific chimeric antigen receptor (CAR) T cell therapy for recurrence of follicular lymphoma. They were considered immunocompromised, with total neutrophils and lymphocytes slightly below normal levels, absent B-cells, and a treatment associated persistent hypogammaglobulinaemia. Four weeks before presentation at our hospital they contacted their GP because of swelling and pain of their left elbow. Their GP aspirated fluid from their elbow, injected steroids and started antibiotics, but now there was recurrence of swelling and pain. Bursitis without arthritis was diagnosed by a rheumatologist and the bursa was surgically opened and drained, relieving pus. The patient was started on oral flucloxacillin and sent home. Two days later the culture of the pus from the bursa grew white colonies on a Sabouraud dextrose agar plate, showing long conidophores with large oval conidia on microscopy. […] Over the next few weeks the bursitis symptoms diminished. […] Voriconazole is considered first line treatment for Scedosporium infections. […] Eight weeks later there were no signs of bursitis and posaconazole was discontinued.

Test [6] has as its system S. apiospermum (SA) biofilms. Description: Mature biofilm damage, XTT metabolic reduction assay. Particulars: Scedosporium apiospermum, 24 h, read-out: BF MIC50.
In test [7] the test system is C. albicans SC5314 experimental population. In words: Experimental evolution under fluconazole, azole susceptibility. Particulars: Candida albicans. It is filed as cell-based.
Another test relates to Candida auris isolates. In words: Disc diffusion, Oxoid discs. The conditions noted are these: 25 µg FLU and 5 µg CAS discs; […]. In kind it is cell-based. Background: Agar diffusion results depend on both activity and mobility in agar.
Another test concerns C. auris. Description: ARIA surveillance, CLSI M27 broth microdilution. In kind it is cell-based, Candida auris. Particulars: CDC tentative breakpoints. A general note: Broth dilution looks for growth in wells or tubes with falling amounts of substance.
Another test deals with C. albicans. In words: […] candidemia survey, susceptibility according to CLSI. It is filed as cell-based, Candida albicans.
Another test relates to C. parapsilosis. Description: ARIA surveillance, CLSI M27 broth microdilution. It is filed as cell-based, Candida parapsilosis.
The subject of a further test is Candida sp. In kind it is cell-based.
Test [8] deals with Cryptococcus bacillisporus (AFLP5/VGIII). Description: E-test method. In kind it is cell-based.
The next test relates to C. glabrata isolates. Description: Rapid XTT assay based on EUCAST E.Def 7.3. It is filed as cell-based, Candida glabrata. In general terms: Formazan colour is commonly taken as a measure of viable cells.
A further test concerns Candida non-albicans. Description: In vitro fluconazole susceptibility, neonatal invasive candidiasis. In kind it is cell-based.

Experimental findings from article PMC8624133, “10th Trends in Medical Mycology Held on 8 to 11 October 2021, Aberdeen, Scotland, Organized by the European Confederation of Medical Mycology (ECMM)” (Journal of Fungi, 2021) are described below.

In brackets after ≈: the same amount, converted by molar mass. Several values for one entry are separate records, joined by “and”; a condition that tells them apart may be missing. Equal values may be shown once. Read-outs that look alike come from different tables or passages of the source.

Method for Asp. flavus: as §1
Method for Asp. niger: as §1

For the compound `C[C@@H]1[C@H](O)[C@@H](C)/C=C/C=C/C=C/C=C/C=C/C=C/C=C/[C@H](O[C@@H]2O[C@H](C)[C@@H](O)[C@H](N)[C@@H]2O)C[C@@H]2O[C@](O)(C[C@@H](O)C[C@@H](O)[C@H](O)CC[C@@H](O)C[C@@H](O)CC(=O)O[C@H]1C)C[C@H](O)[C@H]2C(=O)O` [amphotericin B], the MIC with Rhizopus arrhizus was above 32 µg/mL; in test [2] it was 0.25 to 8 µg/mL; in [3] it was 30 to 1000 µg/mL; against C. glabrata, 0.38 µg/mL (≈ 0.411 µM). Also, the clinical response entry in test [1] was “good response”.

Turning to `CCC(C)n1ncn(-c2ccc(N3CCN(c4ccc(OCC5COC(Cn6cncn6)(c6ccc(Cl)cc6Cl)O5)cc4)CC3)cc2)c1=O` (stereo not shown) [itraconazole], the “optimal agar concentration preventing growth of WT isolates” value with Trichophyton spp. stood at 1 mg/L.

With `C[C@@H](c1ncncc1F)[C@](O)(Cn1cncn1)c1ccc(F)cc1F` [voriconazole], the “isolates with growth only in voriconazole well, n (%)” value in test [4] (48 h) is 1 (2%); in test [4] (72 h), 16 (32%); in the test on Asp. flavus (48 h), 1 (3.44%); in the test with Asp. flavus (72 h), 11 (37.93%); in the test with Asp. niger (48 h), 0; with Asp. niger (72 h), 2 (14.28). In test [5] (2 of 35), the “isolates with elevated MIC” value was found to be 5.7%. Further, the MIC is above 8 µg/mL in test [5] (Aspergillus fumigatus, BAL, read-out: elevated minimum inhibitory concentrations (MIC)); 0.5 µg/mL (≈ 1.43 µM) in the test on Scedosporium apiospermum (first isolate from bursa pus); 1 µg/mL (≈ 2.86 µM) against Scedosporium apiospermum (isolate two months later, under posaconazole). Also, the MIC50 in test [6] came out at 32 µg/mL (≈ 91.6 µM).

As for `OC(Cn1cncn1)(Cn1cncn1)c1ccc(F)cc1F` [fluconazole], the MIC amounted to 0.5 µg/mL (≈ 1.63 µM) in [7] (SC5314) and 8 µg/mL (≈ 26.1 µM) in test [7] (SC5314, 168 h). Moreover, the “median zone diameter (ZD)” value in the test on Candida auris isolates was determined as 0 mm. Also, the susceptible with C. auris was found to be 56.3%. Also, the non-susceptibility in the test with C. albicans was 1%. For the same compound, the susceptibility in the test on C. parapsilosis (Italy) is 52.4%; in the test with C. parapsilosis (Turkey) it was 76.2%; in the test on C. parapsilosis (all countries except Italy and Turkey) it was 100%. In the test on C. parapsilosis (all countries), this compound returned an overall susceptibility of 88.5%. The “Susceptibility to fluconazole (share of isolates)” value with Candida sp. (2019) is listed as 66%; in the test on Candida sp. (full 12 month period in 2020) it was 82%; with Candida sp. (overall, entire period reviewed), 74%; in the test on Candida sp. (to date in January–April 2020), 100%. The antifungal susceptibility entry in [8] was “low response”. Besides, in the test on C. glabrata isolates, the “XTT-absorbance in drug-treated wells” value is 0.67 ± 0.15 and 0.51 ± 0.08. Besides, in the test on Candida non-albicans, the dose-dependent susceptible pathogens was determined as 6%. Further, the “in vitro resistant pathogens” value in the test on Candida non-albicans was 6%.
